Reference: the supplement of paper PMC10733146

What was measured:
Assay in all cases: viability relative to DMSO control (fraction); higher = less drug effect (more viable cells)
Details in all cases: 48 h
[1] = tested on: primary AML patient cells (S081)
Outline: (§1)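 Primary mononuclear tumour cells (Ficoll-isolated from blood or bone marrow, or processed lymph node; fresh or cryopreserved) were plated at 4 × 10^4 cells per well in 384-well plates with pre-plated compounds at five concentrations, one well each. Medium was RPMI-1640 with penicillin/streptomycin, L-glutamine and human serum, at 37 °C and 5% CO2 for 48 h. Viability was read as CellTiter-Glo luminescence relative to the median of 16 inner DMSO wells.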

[2] = tested on: primary CLL patient cells (S043)
Outline: as §1

[3] = tested on: primary AML patient cells (S006)
Outline: as §1

[4] = tested on: primary FL patient cells (S022)
Outline: as §1

[5] = tested on: primary AML patient cells (S085)
Outline: as §1

[6] = tested on: primary CLL patient cells (S031)
Outline: as §1

[7] = tested on: primary AML patient cells (S021)
Outline: as §1

[8] = tested on: primary MCL patient cells (S068)
Outline: as §1

[9] = tested on: primary ALL patient cells (S048)
Outline: as §1

[10] = tested on: primary AML patient cells (S060)
Outline: as §1

[11] = tested on: primary AML patient cells (S056)
Outline: as §1

[12] = tested on: primary AML patient cells (S012)
Outline: as §1

[13] = tested on: primary B-PLL patient cells (S016)
Outline: as §1

[14] = tested on: primary AML patient cells (S011)
Outline: as §1

[15] = tested on: primary ALL patient cells (S088)
Outline: as §1

[16] = tested on: primary MCL patient cells (S053)
Outline: as §1

[17] = tested on: primary FL patient cells (S087)
Outline: as §1

[18] = tested on: primary MCL patient cells (S063)
Outline: as §1

[19] = tested on: primary AML patient cells (S017)
Outline: as §1

[20] = tested on: primary BL patient cells (S005)
Outline: as §1

`O=C(Nc1nc2ccccc2n1CCN1CCOCC1)c1cccc([N+](=O)[O-])c1` [IRAK-1/4 INHIBITOR I] gave a viability ([1]; 0.016 µM) of 0.864, a viability ([1]; 0.08 µM) of 0.93 and a viability ([1]; 0.4 µM) of 0.907. It also gave a viability ([1]; 2 µM) of 0.93, a viability ([1]; 10 µM) of 0.915 and a viability ([2]; 0.016 µM) of 0.825. For the same compound, the viability ([2]; 0.08 µM) was 0.885, the viability ([2]; 0.4 µM) was 0.838 and the viability ([2]; 2 µM) was 0.845. It also gave a viability ([2]; 10 µM) of 0.861, a viability ([3]; 0.016 µM) of 0.952 and a viability ([3]; 0.08 µM) of 0.975. The viability ([3]; 0.4 µM) was 0.887, the viability ([3]; 2 µM) was 0.751 and the viability ([3]; 10 µM) was 0.691. For the same compound, the viability ([4]; 0.016 µM) was 0.887, the viability ([4]; 0.08 µM) was 0.974 and the viability ([4]; 0.4 µM) was 0.885. It also gave a viability ([4]; 2 µM) of 0.915, a viability ([4]; 10 µM) of 0.913 and a viability ([5]; 0.016 µM) of 0.957. The viability ([5]; 0.08 µM) was 0.985, the viability ([5]; 0.4 µM) was 1.05 and the viability ([5]; 2 µM) was 1.04. It also gave a viability ([5]; 10 µM) of 1.02, a viability ([6]; 0.016 µM) of 0.897 and a viability ([6]; 0.08 µM) of 0.91. For the same compound, the viability ([6]; 0.4 µM) was 0.906, the viability ([6]; 2 µM) was 0.861 and the viability ([6]; 10 µM) was 0.877. It also gave a viability ([7]; 0.016 µM) of 0.924, a viability ([7]; 0.08 µM) of 0.954 and a viability ([7]; 0.4 µM) of 0.907. It also gave a viability ([7]; 2 µM) of 0.735, a viability ([7]; 10 µM) of 0.819 and a viability ([8]; 0.016 µM) of 0.977. For the same compound, the viability ([8]; 0.08 µM) was 0.997, the viability ([8]; 0.4 µM) was 1.13 and the viability ([8]; 2 µM) was 1.27. It also gave a viability ([8]; 10 µM) of 1.41, a viability ([9]; 0.016 µM) of 0.726 and a viability ([9]; 0.08 µM) of 0.836. It also gave a viability ([9]; 0.4 µM) of 0.811, a viability ([9]; 2 µM) of 0.834 and a viability ([9]; 10 µM) of 0.808. For the same compound, the viability ([10]; 0.016 µM) was 0.973, the viability ([10]; 0.08 µM) was 1 and the viability ([10]; 0.4 µM) was 0.974. The viability ([10]; 2 µM) was 1, the viability ([10]; 10 µM) was 1.02 and the viability ([11]; 0.016 µM) was 0.693. It also gave a viability ([11]; 0.08 µM) of 1.13, a viability ([11]; 0.4 µM) of 0.585 and a viability ([11]; 2 µM) of 0.817. It also gave a viability ([11]; 10 µM) of 0.783, a viability ([12]; 0.016 µM) of 0.922 and a viability ([12]; 0.08 µM) of 0.993. It also gave a viability ([12]; 0.4 µM) of 0.908, a viability ([12]; 2 µM) of 0.954 and a viability ([12]; 10 µM) of 0.964. It also gave a viability ([13]; 0.016 µM) of 0.968, a viability ([13]; 0.08 µM) of 1.05 and a viability ([13]; 0.4 µM) of 0.969. The viability ([13]; 2 µM) was 0.937, the viability ([13]; 10 µM) was 1.04 and the viability ([14]; 0.016 µM) was 0.949. It also gave a viability ([14]; 0.08 µM) of 0.934, a viability ([14]; 0.4 µM) of 0.972 and a viability ([14]; 2 µM) of 1.11. For the same compound, the viability ([14]; 10 µM) was 0.878, the viability ([15]; 0.016 µM) was 0.747 and the viability ([15]; 0.08 µM) was 0.862. For the same compound, the viability ([15]; 0.4 µM) was 0.856, the viability ([15]; 2 µM) was 0.826 and the viability ([15]; 10 µM) was 0.941. It also gave a viability ([16]; 0.016 µM) of 0.823, a viability ([16]; 0.08 µM) of 0.939 and a viability ([16]; 0.4 µM) of 0.915. It also gave a viability ([16]; 2 µM) of 0.977, a viability ([16]; 10 µM) of 1.09 and a viability ([17]; 0.016 µM) of 0.933. The viability ([17]; 0.08 µM) was 1.02, the viability ([17]; 0.4 µM) was 0.989 and the viability ([17]; 2 µM) was 0.994. For the same compound, the viability ([17]; 10 µM) was 1.08, the viability ([18]; 0.016 µM) was 0.993 and the viability ([18]; 0.08 µM) was 0.961. It also gave a viability ([18]; 0.4 µM) of 1.02, a viability ([18]; 2 µM) of 1.03 and a viability ([18]; 10 µM) of 1.11. It also gave a viability ([19]; 0.016 µM) of 0.904, a viability ([19]; 0.08 µM) of 0.962 and a viability ([19]; 0.4 µM) of 0.889. For the same compound, the viability ([19]; 2 µM) was 0.932, the viability ([19]; 10 µM) was 0.937 and the viability ([20]; 0.016 µM) was 1.02. It also gave a viability ([20]; 0.08 µM) of 1.09, a viability ([20]; 0.4 µM) of 1.04 and a viability ([20]; 2 µM) of 0.984. The viability ([20]; 10 µM) was 1.09.
